Measured values taken from PMC7497253, “Structure‐Based Macrocyclization of Substrate Analogue NS2B‐NS3 Protease Inhibitors of Zika, West Nile and Dengue viruses” (Chemmedchem, 2020).
Read-outs that look alike come from different tables or passages of the source. Starred links: 1 amine or outer side, 2 acyl side, 3 side chain; linkers in the order of their positions; H or OH if unused. Positions of bridges follow the written chain, without caps; N, C: chain ends. Non-standard residues stand in square brackets, D forms with d. Residues, ends and D or L forms follow the SMILES beside them. dεLys(Nα-amidino) = N=C(N)N[C@H](CCCCN[*:1])C(=O)[*:2]; NHCH2(1,3-C6H4)CH2CO = O=C(Cc1cccc(CN[*:1])c1)[*:2]

Key:
Format in all cases: biochemical
[1] = biological target: T1, WNV NS2B-NS3 protease (WNV-Pro) (West Nile virus, UniProt P06935); assay: Enzyme kinetics with the covalent WNV NS2B-NS3 construct, substrate Phac-Leu-Lys-Lys-Arg-AMC
T1 construct: NS3 has to form a complex with its cofactor NS2B to achieve proteolytic activity; The viral protease consists of the N‐terminal third of the nonstructural protein NS3
Experimental: (§1) Enzyme kinetics. Measurements with bZiPro15 and the covalent WNV NS2B‐NS3 construct^10 were performed at room temperature in black 96 well plates using a Fluoroskan Ascent® plate reader (Thermo Fisher Scientific, Vantaa, Finland) with λ ex at 355 nm and λ em at 460 nm. Each well contained 125 μL inhibitor dissolved in buffer (for bZiPro: 20 mM Tris×HCl pH 8.5, 2 mM DTT, 10 w/v glycerol and 0.01 w/v Triton X‐100;18 for WNV protease: 100 mM Tris×HCl pH 8.5, containing 32 w/v glycerol and 0.01 w/v Triton X‐10012) and 50 μL substrate Phac‐Leu‐Lys‐Lys‐Arg‐AMC12 (40 μM for bZiPro (10 μM in assay, K M=1.4 μM) and 400 μM for the WNV protease (100 μM in assay, K M=53 μM)). The measurements were started by addition of 25 μL enzyme solution (16 nM for bZiPro (2.0 nM in assay), and 64 nM for the WNV protease (8.0 nM in assay)). Data points were collected each 15 s over a period of 10 min using eight different inhibitor concentrations. […] The K i values and their standard deviation were obtained from at least three independent measurements.(1) vi=Vmax×[S]/KM1+[I]/Ki+[S]

[2] = biological target: T2, bZiPro (unlinked binary Zika virus NS2B-NS3 protease) (Zika virus, UniProt A0A024B7W1); assay: Enzyme kinetics with bZiPro, fluorogenic substrate Phac-Leu-Lys-Lys-Arg-AMC
T2 construct: The viral protease consists of the N‐terminal third of the nonstructural protein NS3; the NS2B construct ends at Glu96; His6 (cleaved yes); made in house
Experimental: as §1
The constants K M and V max were obtained from independent measurements with six different substrate concentrations in absence of inhibitor. For inhibitor 10 with bZiPro, additional measurements at three substrate concentrations (10, 5, and 2.5 μM in assay) were performed to obtain the Dixon plot shown in Figure 4.

[3] = biological target: T3, bD4Pro (unlinked binary dengue-4 virus NS2B-NS3 protease) (Dengue virus type 4, UniProt Q2YHF2); assay: Enzyme kinetics with bD4Pro, substrate Benzoyl-Nle-Lys-Arg-Arg-AMC
T3 construct: The viral protease consists of the N‐terminal third of the nonstructural protein NS3; NS3 has to form a complex with its cofactor NS2B to achieve proteolytic activity; His6 (cleaved yes); made in house
T3 sequence (Q2YHF2 1475-1652 limits assumed): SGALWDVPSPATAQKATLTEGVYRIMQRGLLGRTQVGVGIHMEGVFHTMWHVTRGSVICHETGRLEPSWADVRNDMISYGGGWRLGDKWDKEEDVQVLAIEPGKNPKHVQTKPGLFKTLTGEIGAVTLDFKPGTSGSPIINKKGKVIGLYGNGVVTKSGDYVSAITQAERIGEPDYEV
T3 sequence (Q2YHF2 1397-1436 limits assumed): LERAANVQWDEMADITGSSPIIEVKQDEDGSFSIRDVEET
Experimental: Measurements with the dengue 4 virus protease construct (bD4Pro; expressed and purified by a similar methodology as described for bZiPro15 with slight modification of using Tobacco Etch Virus (TEV) protease instead of thrombin for His6‐tag cleavage) were performed in a Cytation 3 Mulitmode plate reader with λ ex at 380 nm and λ em at 460 nm. Assays were carried out as triplicate at 37 °C. Before measurement, the protease (final assay concentration 3 nM) was preincubated with varying concentrations of inhibitors in assay buffer (20 mM Tris pH 8.5, 10 % glycerol, 0.01 % Triton X‐100) for 1 h at room temperature in Corning black clear bottom 96‐well plates. The reaction was started by addition of the substrate Benzoyl‐Nle‐Lys‐Arg‐Arg‐AMC (final assay concentration 50 μM, K M=48.4 μM). Fluorescent readings were recorded at 1‐minute intervals over 10 minutes. The steady‐state rates v i in presence of inhibitor were calculated from the slopes of the progress curves using Graph Pad Prism. The v i values were fitted to Equation (2) as function of the inhibitor concentration [I] providing the IC50 values, where v 0 is the rate in absence of inhibitor and s a slope factor. The obtained IC50 values were finally converted into K i values by the Cheng‐Prusoff Equation (2).(2) vi=v0/1+I/IC50^s (3) Ki=IC50/1+S/KM

[4] = K i bZiPro, mean±SD of at least three independent measurements, substrate 10 μM in assay, room temperature, pH 8.5

T2 sequence (A0A024B7W1 1503-1680 limits assumed): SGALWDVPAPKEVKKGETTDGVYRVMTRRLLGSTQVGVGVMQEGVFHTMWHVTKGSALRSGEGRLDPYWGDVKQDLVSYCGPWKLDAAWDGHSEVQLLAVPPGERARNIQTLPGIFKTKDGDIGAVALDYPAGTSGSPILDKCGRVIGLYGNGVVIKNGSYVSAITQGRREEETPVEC
T2 sequence (A0A024B7W1 1425-1464 limits assumed): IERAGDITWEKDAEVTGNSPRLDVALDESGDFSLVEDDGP
T1 sequence (P06935 1424-1463): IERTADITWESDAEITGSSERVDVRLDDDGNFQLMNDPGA
T1 sequence (P06935 1502-1679): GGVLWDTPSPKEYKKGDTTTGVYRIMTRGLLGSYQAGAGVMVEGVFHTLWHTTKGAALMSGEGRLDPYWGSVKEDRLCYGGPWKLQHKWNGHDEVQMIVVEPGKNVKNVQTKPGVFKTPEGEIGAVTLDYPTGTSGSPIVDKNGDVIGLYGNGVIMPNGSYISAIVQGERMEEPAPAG

Row | Compound | Ki [1] [nM] | Ki [2, 4] [nM] | Ki [3] [nM] | Ki ([1]; mean±SD of at least three independent measurements, substrate 100 μM in assay, room temperature, pH 8.5, read-out: K i WNV-Pro) [nM] | Ki ([2]; mean±SD of at least three independent measurements, substrate 10 μM in assay, room temperature, pH 8.5, read-out: K i bZiPro) [nM] | Ki ([3]; mean±SD of at least three independent measurements, 37 °C, IC50 converted into K i by Cheng-Prusoff, read-out: K i bD4Pro) [nM] | Ki ([2]; K i against bZiPro / ZIKV protease, value given in running text) [nM]
1 | N=C(N)N[C@@H]1CCCCNC(=O)[C@H](CCCCN)NC(=O)[C@H](CCCCN)NC(=O)Cc2cccc(c2)NC(=O)CCCNC1=O [Inhibitor 14] | 16500 ± 4600 | 106 ± 29 | 5800 ± 360 | – | – | – | –
2 | NCCCC[C@@H]1NC(=O)Cc2cccc(c2)CNC(=O)CNC(=O)[C@H](N)CCCCNC(=O)[C@H](CCCCN)NC1=O [Inhibitor 20] (H-[dK]G[NHCH2(1,3-C6H4)CH2CO]KK; lactam 1-C) | 99000 | 23000 | 282000 | – | – | – | –
3 | N=C(N)N[C@@H]1CCCNC(=O)[C@H](CCCCN)NC(=O)[C@H](CCCCN)NC(=O)Cc2ccc(cc2)CNC(=O)CCCNC1=O [Inhibitor 5] | 22000 ± 4000 | 3610 ± 1330 | 60500 ± 5700 | – | – | – | –
4 | N=C(N)N[C@@H]1CCCCNC(=O)[C@H](CCCCN)NC(=O)[C@H](CCCCN)NC(=O)CNC(=O)CNC(=O)CNC1=O [Inhibitor 25] (cyclo(GGGKK[dεLys(Nα-amidino)])) | 129 ± 7 | 3.74 ± 0.2 | 378 ± 27 | – | – | – | –
5 | NCCCC[C@@H]1NC(=O)Cc2ccc(cc2)CNC(=O)CCCNC(=O)[C@H](N)CCCCNC(=O)[C@H](CCCCN)NC1=O [Inhibitor 6] | – | – | – | 68100 ± 5000 | 24700 ± 7200 | 94500 ± 11600 | –
6 | CC(C)[C@H]1NC(=O)[C@H](NC(=N)N)CCCCNC(=O)[C@H](CCCCN)NC(=O)[C@H](CCCCN)NC(=O)Cc2cccc(c2)CNC1=O [Inhibitor 18] | 439 ± 28 | 7.74 ± 0.66 | 486 ± 27 | – | – | – | –
7 | N=C(N)N[C@@H]1CCCCNC(=O)[C@H](CCCCN)NC(=O)[C@H](CCCCN)NC(=O)Cc2ccc(cc2)CNC(=O)CCCNC1=O [Inhibitor 4] | 4970 ± 500 | 70.1 ± 9.2 | 4730 ± 500 | – | – | – | –
8 | CC(=O)NCc1cccc(CC(=O)N[C@@H](CCCCN)C(=O)N[C@@H](CCCCN)C(=O)NCCCCCNC(=N)N)c1 [Inhibitor 32] | 4940 ± 530 | 88.2 ± 3.8 | 18100 ± 1200 | – | – | – | –
9 | N=C(N)N[C@@H]1CCCCNC(=O)[C@H](CCCCN)NC(=O)[C@H](CCCCN)NC(=O)Cc2cccc(c2)CNC(=O)[C@H]2CCCN2C1=O [Inhibitor 19] | 850 ± 68 | 17.7 ± 0.5 | 4080 ± 260 | – | – | – | –
10 | N=C(N)N[C@@H]1CCCCNC(=O)[C@H](CCCCN)NC(=O)[C@H](CCCCN)NC(=O)CCCCCNC(=O)CNC1=O [Inhibitor 24] | 973 ± 173 | 15.4 ± 2.6 | 1990 ± 90 | – | – | – | –
11 | N=C(N)N[C@@H]1CCCCNC(=O)[C@H](CCCCN)NC(=O)[C@H](CCCCN)NC(=O)Cc2cccc(c2)CNC(=O)CCNC1=O [Inhibitor 9] | 374 ± 44 | 3.88 ± 0.81 | 182 ± 5 | – | – | – | –
12 | N=C(N)N[C@@H]1CCCCNC(=O)[C@H](CCCCN)NC(=O)[C@H](CCCCN)NC(=O)Cc2cccc(c2)CNC(=O)CCCNC1=O [Inhibitor 8] | 702 ± 83 | 4.33 ± 0.35 | 286 ± 9 | – | – | – | –
13 | N=C(N)N[C@@H]1CCCCNC(=O)[C@H](CCCCN)NC(=O)[C@H](CCCCN)NC(=O)CCCCNC(=O)CNC1=O [Inhibitor 23] | 1220 ± 20 | 16.7 ± 3.4 | 1120 ± 50 | – | – | – | –
14 | N=C(N)N[C@@H]1CCCCNC(=O)[C@H](CCCCN)NC(=O)[C@H](CCCCN)NC(=O)Cc2cccc(c2)NC(=O)CCNC1=O [Inhibitor 13] | 4280 ± 310 | 80.2 ± 9.7 | 7960 ± 550 | – | – | – | 80
